Results on 17 compounds are retold here after PubChem BioAssay (NCI).

In general, TGI refers to the concentration giving total growth inhibition. A lower TGI goes with greater sensitivity of the cells.

Some test systems named below: BT-549 breast; RXF 393 renal; DU-145 prostate; M14 melanoma; IGROV1 ovarian; U251 CNS; SF-539 CNS.
Holding throughout (experiment): DTP human tumour cell line panel, 48 h

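1) Cells in 96-well plates. 2) Compound, 48 h, 5 concentrations. 3) Linear interpolation between surrounding doses. 4) Unreached endpoint = highest concentration. TGI: total growth inhibition.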

On to `N[C@H](C(=O)O)[C@@H]1CC(Br)=NO1`, for which the TGI with BT-549 breast, with RXF 393 renal, with DU-145 prostate, in the assay with M14 melanoma, in the assay with IGROV1 ovarian and in the assay with U251 CNS was more than 100 µM in each case. In addition, the TGI in the assay on SF-539 CNS was more than 100 µM.
As for `O=C(c1cccs1)N(C(=S)OCCOc1ccccc1)c1ccccc1`, the TGI in the assay on BT-549 breast is 65.1 µM; with RXF 393 renal it was 51.9 µM; in the assay with DU-145 prostate, more than 100 µM; in the assay with M14 melanoma, 37.1 µM; in the assay on IGROV1 ovarian it was 79.2 µM; in the assay with U251 CNS, 48.8 µM. In the assay with SF-539 CNS, the TGI was 58 µM.
Take `Nc1ncnc2oc(C3OC(COC(=O)c4ccccc4)C(OC(=O)c4ccccc4)C3OC(=O)c3ccccc3)nc12` (centres undefined): the TGI in the assay with BT-549 breast, in the assay with RXF 393 renal, in the assay on DU-145 prostate, with M14 melanoma, in the assay with IGROV1 ovarian and with U251 CNS was more than 100 µM in each case. The compound also displayed a TGI in the assay with SF-539 CNS of more than 100 µM.
As to `O=C(c1ccccc1)N(C(=O)c1ccccc1)c1nc(SCc2ccccc2)ns1`, the TGI in the assay with BT-549 breast was 70.5 µM; with RXF 393 renal it was more than 100 µM; in the assay with DU-145 prostate, more than 100 µM; in the assay with M14 melanoma, 86.1 µM; in the assay on IGROV1 ovarian, more than 100 µM; with U251 CNS, 37.8 µM. Besides, the TGI with SF-539 CNS was 44.1 µM.
With `Cc1cc(N(CCC#N)CCC#N)ccc1/C(N=Nc1cccc(Cl)c1)=N/NC(=O)c1cc(Cl)ccc1O`, the TGI in the assay with BT-549 breast is 62 µM; in the assay on RXF 393 renal, 35.3 µM; in the assay on DU-145 prostate, 42.6 µM; in the assay on M14 melanoma, 49.6 µM; with IGROV1 ovarian it was 10.2 µM; in the assay on U251 CNS it was more than 100 µM. Also, in the assay with SF-539 CNS, the total growth inhibition concentration (TGI) was more than 100 µM.
For `COC(=O)c1ccc2c(c1)S/C(=C/c1ccc3ccc4cccc5ccc1c3c45)S2`, the TGI in the assay with BT-549 breast, in the assay on RXF 393 renal, in the assay on DU-145 prostate, in the assay on M14 melanoma, in the assay with IGROV1 ovarian and with U251 CNS was more than 100 µM each time. Further, the TGI with SF-539 CNS is more than 100 µM.
Turning to `O=c1[nH]c(=S)nc2nc3c4ccc[nH]c4c4ccccc4c3nc12`, the TGI in the assay on BT-549 breast, in the assay with RXF 393 renal, with DU-145 prostate, in the assay on M14 melanoma, in the assay with IGROV1 ovarian and in the assay on U251 CNS was more than 100 µM each time. The compound further returned a TGI in the assay with SF-539 CNS of more than 100 µM.
Consider `CC1(c2nc3ccccc3[nH]2)CCC(C(=O)O)C(C)(C)O1` (centres undefined), for which the TGI in the assay with BT-549 breast, in the assay with RXF 393 renal, with DU-145 prostate, in the assay on M14 melanoma, with IGROV1 ovarian and with U251 CNS was more than 100 µM throughout. In the assay with SF-539 CNS, this compound showed a TGI of more than 100 µM.
`COC(=O)[C@]1(NC(=O)c2ccccc2)C[C@H]1C=O`: the TGI in the assay on BT-549 breast, with RXF 393 renal, with DU-145 prostate, in the assay on M14 melanoma, in the assay with IGROV1 ovarian and in the assay on U251 CNS was more than 100 µM in each case. The same compound displayed a TGI in the assay on SF-539 CNS of more than 100 µM.
Regarding `CC(=O)OCC(=O)O[C@@H]1[C@H]2[C@@H](OC(=O)c3ccccc3)[C@@H](C)C[C@]2(O)[C@H](OC(C)=O)[C@@]2(C)C(OC(C)=O)[C@]1(OC(C)=O)C[C@H]1C(=O)C(C)(C)C[C@@H]12` (some centres undefined), the TGI in the assay with BT-549 breast, in the assay with RXF 393 renal, in the assay on DU-145 prostate, in the assay on M14 melanoma, in the assay on IGROV1 ovarian and with U251 CNS was more than 50 µM in each case. In the assay with SF-539 CNS, the TGI is more than 50 µM.
For `Nc1ccc2c(c1)nc1n2C(c2c(F)cccc2F)SC1` (centres undefined), the TGI in the assay on BT-549 breast, with RXF 393 renal, in the assay with DU-145 prostate, with M14 melanoma, in the assay with IGROV1 ovarian and in the assay on U251 CNS was more than 100 µM throughout. Moreover, the TGI in the assay on SF-539 CNS is more than 100 µM.
Take `CCOC(=O)C(=CNc1ccc(NC2=NCC(C)S2)cc1)C(=O)OCC` (centres undefined): the TGI is 48.9 µM with BT-549 breast; 97.1 µM in the assay on RXF 393 renal; more than 100 µM in the assay with DU-145 prostate; more than 90.7 µM with M14 melanoma; more than 100 µM in the assay with IGROV1 ovarian; more than 100 µM in the assay with U251 CNS. In addition, in the assay on SF-539 CNS, the TGI is more than 100 µM.
`CC(=O)NC1C(OCc2ccccc2)OC(CO)C(O)C1OC(C)C(=O)NC(C)C(=O)NC(CCC(=O)NCCCCNc1c2ccccc2nc2cccc([N+](=O)[O-])c12)C(N)=O` (centres undefined): the TGI was 0.531 µM in the assay with BT-549 breast; 0.0676 µM with RXF 393 renal; 0.049 µM with DU-145 prostate; 12.5 µM in the assay with M14 melanoma; 0.612 µM in the assay with IGROV1 ovarian; 0.303 µM in the assay on U251 CNS. The same compound had a concentration for total growth inhibition (TGI) in the assay with SF-539 CNS of 0.264 µM.
As to `CCOC(=O)CNC(=O)C(CSC(=O)N(O)c1ccc(Cl)cc1)NC(=O)CCC(N)C(=O)OCC` (centres undefined), the TGI in the assay with BT-549 breast, in the assay with RXF 393 renal, with DU-145 prostate, with M14 melanoma, in the assay on IGROV1 ovarian and in the assay on U251 CNS was more than 50 µM throughout. Further, the TGI with SF-539 CNS was more than 50 µM.
Regarding `CC1(C)OCC([C@H]2O[C@@H](CC(=S)NCCCCCCCCCCCCNC(=S)C[C@H]3O[C@@H](C4COC(C)(C)O4)[C@H]4OC(C)(C)O[C@H]43)[C@H]3OC(C)(C)O[C@H]32)O1` (some centres undefined), the TGI with BT-549 breast, with RXF 393 renal, in the assay with DU-145 prostate, with M14 melanoma, with IGROV1 ovarian and in the assay on U251 CNS was more than 100 µM each time. This compound also returned a TGI with SF-539 CNS of more than 100 µM.
In the case of `Cc1ccc(-c2nc(N/N=C/C=C/c3ccccc3)c3ccccc3n2)cc1`, the TGI with BT-549 breast was 52.2 µM; in the assay with RXF 393 renal, 99.6 µM; in the assay with DU-145 prostate, 96.4 µM; in the assay with M14 melanoma it was more than 100 µM; with IGROV1 ovarian it was more than 100 µM; with U251 CNS it was more than 100 µM. In addition, the TGI with SF-539 CNS is more than 100 µM.
For `O=c1c2cc(S(=O)(=O)O)ccc2nc(COc2ccc(Oc3ccc(Cl)cc3Cl)cc2)n1-c1ccc(Oc2ccc(Cl)cc2)cc1Cl`, the TGI with BT-549 breast is 34.3 µM; in the assay on RXF 393 renal, 17.9 µM; in the assay on DU-145 prostate, more than 100 µM; with M14 melanoma, 39.9 µM; with IGROV1 ovarian it was 66.2 µM; in the assay on U251 CNS it was 30.1 µM. In the assay on SF-539 CNS, this compound yielded a TGI of 32.3 µM.
